Series [1] relates to HR+/HER2− breast cancer with PIK3CA mutations. The settings on record: patients with PIK3CA mutations, few treated with CDK4/6i; cited from earlier work.
Another series can be described thus: Plasma pharmacokinetics. The settings on record: data not shown.

Regarding `C[C@]12CC[C@@H]3c4ccc(O)cc4C[C@@H](CCCCCCCCC[S+]([O-])CCCC(F)(F)C(F)(F)F)[C@H]3[C@@H]1CC[C@@H]2O` (stereo partly drawn) [fulvestrant], the ORR in series [1] was 12.8%. Moreover, the “effect of molibresib on fulvestrant pharmacokinetics” value in the series “Plasma pharmacokinetics” (fulvestrant predose concentrations) was “lack of effect”. For the same compound, the predose concentrations entry in the series “Plasma pharmacokinetics” (fulvestrant with molibresib, compared with ref 18) was “within the range anticipated”.

Source of the values: article PMC10792358 (Clinical Cancer Research, 2023).
